{"source": "patent US20030104079A1", "about": "“Skin tissue regeneration promoters comprising ginsenoside Rb1” (Japan Science and Technology Corporation, Japan, priority 2000, published 2003)", "key": {"Bcl-xL gene": {"tested_on": "Bcl-xL gene", "settings": "continuous intravenous administration 60 μg/day; cited from earlier work"}, "[1]": {"tested_on": "permanent occlusion of the cortical branch of the middle cerebral artery", "settings": "infused into the cerebroventricles of cerebral infarcted rats; cited from earlier work"}, "[2]": {"tested_on": "cultured nerve cells (neurons)", "settings": "same SNP culture system, Japanese Patent Appln. No. Hei 10-365560; cited from earlier work"}, "spinal cord injury": {"tested_on": "spinal cord injury", "settings": "continuous intravenous administration 60 pg/day; cited from earlier work"}, "[3]": {"tested_on": "skin epidermal keratinocytes or hornified cells", "settings": "extracellular fluid concentration 100 μg/ml; cited from earlier work"}, "[4]": {"assay": "Observation of administered animals for side effects", "format": "in vivo, rats", "settings": "present experiments, animals carefully observed", "description": "The amount of administration of ginsenoside Rb1, which is used as the preparation(s) for external or topical application to skin or the preparation(s) for external or topical application to mucosa, is far smaller than the amount of intravenous administration.\nActually, as indicated in PCT/JP00/04102 (Brain cell or nerve cell protecting agents comprising ginseng), as far as directing treatment or therapy of cerebral infarction by continuous intravenous administration in a dose of […] (weighing 300 g), dihydroginsenoside Rb1 is thought to be a quite safe pharmaceutical composition. The amount of administration of ginsenoside Rb1, which is used as the preparation(s) for external or topical application to skin or the preparation(s) for external or topical application to mucosa, is far smaller than the amount of intravenous administration."}, "cerebral infarct lesion": {"tested_on": "cerebral infarct lesion", "parameters": "therapeutic effect for cerebral apoplexy and cerebral infarction: dose or concentration left out as unconfirmed", "settings": "cited from earlier work"}, "[5]": {"tested_on": "morsus of human oral mucosa", "assay": "Therapy of morsus of human oral mucosa by external application", "format": "in vivo", "settings": "propet containing 0.00001% by weight", "description": "Next, one of the present inventors had confirmed by themself whether or not propet containing low concentration of ginsenoside Rb1 was effective to morsus of mouth or oral mucosa. On May 2nd, 2000, at about 2:00 p.m. after dental treatment, […] had started to have late lunch before waking up from infiltration anesthesia of the left third branch of the trigeminal nerve and periodontal anesthesia due to heavy hunger. They had bitten themself three times their own left lip mucosa and since they felt iron taste (blood) in their oral cavity, as a result of confirmation of their morsus by a mirror, they found at least five regions of erosion or defect of mouth or oral mucosa, further hematocele or hematoma was found at one spot. Since they concluded that if it (i.e. morsus of oral mucosa) was allowed to leave as it is, aphthous stomatitis would be complicated within several days to require a week to ten days for complete cure, propet containing a low concentration (0.00001% by weight) of ginsenoside Rb1, which had been confirmed to show effectiveness and efficacy by animal experiments of the present inventors, was applied with small amount to the five regions with erosion or defect of oral mucosa and one hematocele or hematoma region. External or topical application was performed before and after meal and before and after eating between meals. The external or topical application was performed after tooth brushing was performed as much as possible after the meal. Namely, propet containing 0.00001% by weight of ginsenoside Rb1 was applied externally or topically onto morsus regions of the labial mucosa separately 6-10 times a day. FIG. 7 is a photograph in place of drawing.\nNext, one of inventors of the present invention (Sakanaka) had bitten again left lower labial mucosa on May 26, 2000 during lunch, and propet containing 0.00001% by weight of ginsenoside Rb1 was applied topically or externally onto the morsus region. A photograph just after morsus is shown in left of FIG. 8, and a photograph at 72 hours after morsus is shown in right of FIG. 8.\nNext, one of the present inventors had confirmed by themself whether propet containing low concentrations of ginsenoside Rb1 was effective for morsus of mouth mucosa or not. On May 2nd, 2000, at about 2:00 p.m. after dental treatment, […] had started to have late lunch before awakening from infiltration anesthesia of the left third division of the trigeminal nerve and periodontal anesthesia due to heavy hunger. They had bitten themself three times their own left lip mucosa and they felt iron taste (blood) in their oral cavity. As a result of confirmation of their morsus by a mirror, they found at least five regions of erosion or defect of mouth mucosa, further hematoma was found at one spot. Since they concluded that if the morsus was allowed to leave as it was, aphthous stomatitis would be developed as a complication to require a week to ten days for complete cure, a small amount of propet containing a low concentration (0.00001% by weight) of ginsenoside Rb1, which had been confirmed to show effectiveness and efficacy by animal experiments of the present inventors, was topically or externally applied to the five regions with erosion or defect of oral mucosa and to one hematoma region. External or topical application was performed before and after meal and before and after eating between meals. […]"}}}
{"compound": "CC(C)=CCC[C@](C)(O[C@@H]1O[C@H](CO[C@@H]2O[C@H](CO)[C@@H](O)[C@H](O)[C@H]2O)[C@@H](O)[C@H](O)[C@H]1O)[C@H]1CC[C@]2(C)[C@@H]1[C@H](O)C[C@@H]1[C@@]3(C)CC[C@H](O[C@@H]4O[C@H](CO)[C@@H](O)[C@H](O)[C@H]4O[C@@H]4O[C@H](CO)[C@@H](O)[C@H](O)[C@H]4O)C(C)(C)[C@@H]3CC[C@]12C", "note": "[ginsenoside Rb1]", "values": [{"measurement": "expression of cell death-suppressing factor Bcl-xL gene in brain and nervous tissues", "setting": "Bcl-xL gene", "value": "caused an increase in the expression"}, {"measurement": "cerebral infarction and place navigation disability", "setting": "[1]", "value": "cerebral infarction-reducting effect and place navigation disability-improving effect were observed"}, {"measurement": "extracellular fluid concentration that inhibits apoptosis or apoptosis-like cell death of nerve cells", "setting": "[2]", "value": "≤ 1", "unit": "ng/mL"}, {"measurement": "standing up of bed-ridden rats with spinal cord injury", "setting": "spinal cord injury", "value": "could stand up bed-ridden rats"}, {"measurement": "division and proliferation of skin epidermal keratinocytes or hornified cells", "setting": "[3]", "value": "can promote division and proliferation of skin epidermal keratinocytes or hornified cells"}, {"measurement": "side effect in administered animals", "setting": "[4]", "value": "no side effect or ill effect was noted"}, {"measurement": "therapeutic effect for cerebral infarction and cerebral apoplexy", "setting": "cerebral infarct lesion; continuous intravenous administration 6 μg/day", "value": "superior therapeutic effect"}, {"measurement": "therapeutic effect for cerebral apoplexy and cerebral infarction", "setting": "cerebral infarct lesion; continuous intravenous administration", "value": "superior therapeutic effect"}, {"measurement": "volume of cerebral infarct lesion", "setting": "cerebral infarct lesion; intravenous continuous administration of low dosages, JP Appln. No. Hei 10-365560", "value": "about ¼"}, {"measurement": "pain in the wounded regions", "setting": "[5]", "value": "markedly reduced"}, {"measurement": "epithelization of morsus regions of labial mucosa (FIG. 7)", "setting": "[5]; 6-10 times a day, 96 hours after morsus, one person", "value": "almost complete epithelization"}, {"measurement": "complication of aphthous stomatitis after morsus", "setting": "[5]; first case", "value": "no complication of aphthous stomatitis was observed"}, {"measurement": "cure of morsus (FIG. 8)", "setting": "[5]; second case, 72 hours after morsus", "value": "rapidly cured without developing aphthous stomatitis as a complication"}, {"measurement": "time in which morsus (wound) healing is markedly promoted", "setting": "[5]; such morsus usually requires at least 7 to 10 days", "value": "≤ 96", "unit": "h"}]}
